Results reported in patent publication US12391692B2, “Spiro ring-containing quinazoline compound” (WIGEN BIOMEDICINE TECHNOLOGY (SHANGHAI) CO., LTD., priority 2020, dated 2025).

Assays:
[1] = system: pERK level in H358 cells; experiment: pERK and ERK protein content assay in H358 cells (ELISA); type: cell-based; details: Homo sapiens, NCI-H358, pERK/ERK ratio vs DMSO group, compound 1 μM, 24 h, read-out: Inhibition rate (%)
Protocol: H358 cells were seeded in a 24-well plate. After one day of growth, a test compound (at a concentration of 1 μM) was added. After 24 h of action of the compound, the cells were lysed, and the cell lysate was transferred to a 96-well ELISA plate. The levels of pERK and ERK in the lysate were measured using an ELISA kit (abcam 176660). The ratio of pERK to ERK was calculated and compared with that of the DMSO group, and the percentage of inhibition of pERK activity by the compound was calculated.

[2] = system: H358 cells; experiment: Antiproliferative activity against H358 cells (Cell Titer Glow, ultra-low attachment plate); type: cell-based; details: Homo sapiens, NCI-H358, 72 h, three days after addition of compound
Protocol: 2500 H358 cells were seeded in a 96-well ultra-low attachment plate (corning, 7007). After one day of growth, a serially diluted compound (a maximum concentration of 5 μM, 5-fold dilution, a total of five doses) was added. Three days after the addition of the compound, Cell Titer Glow (Promega, G9681) was added to evaluate pellet growth, and the IC50 value was calculated.

SMILES	IC50 [2]	inhibition at 1 µM [1]
C=CC(=O)N1CC2(CCN(c3nc(N4CCOC5(CN(CCOC)C5)C4)nc4c(OCC(F)(F)F)c(-c5c(C)ccc6[nH]ncc56)c(C5CC5)cc34)CC2)C1 [Compound 84]	300 to 1000 nM	50 to 90%
C=CC(=O)N1CC2(CCN(c3nc(O[C@H]4C[C@H](N5CC6(CCC6)C5)C4)nc4c(OCC(F)(F)F)c(-c5c(C)ccc6[nH]ncc56)c(C5CC5)cc34)CC2)C1 [Compound 96]	300 to 1000 nM	> 90%
C=CC(=O)N1CC2(CCN(c3nc(N4CCOC5(CN(C)C5)C4)nc4c(OCC(F)(F)F)c(-c5c(C)ccc6[nH]ncc56)c(C5CC5)cc34)CC2)C1 [Compound 83]	300 to 1000 nM	50 to 90%
C=CC(=O)N1CC2(CCN(c3nc(N4CC(N5CCC6(CC5)CC6)C4)nc4c(OCC(F)(F)F)c(-c5c(C)ccc6[nH]ncc56)c(C5CC5)cc34)CC2)C1 [Compound 36]	300 to 1000 nM	50 to 90%
C=CC(=O)N1CC2(CCN(c3nc(O[C@H]4C[C@H](N5CC6(CC6)C5)C4)nc4c(OCC(F)(F)F)c(-c5c(C)ccc6[nH]ncc56)c(C5CC5)cc34)CC2)C1 [Compound 94]	300 to 1000 nM	50 to 90%
C=CC(=O)N1CC2(CCN(c3nc(N4CC5(CCCN5CC)C4)nc4c(OCC(F)(F)F)c(-c5c(C)ccc6[nH]ncc56)c(C5CC5)cc34)CC2)C1 [Compound 116]	< 300 nM	> 90%
C=CC(=O)N1CC2(CCN(c3nc(N4CC5(CCCCN5C)C4)nc4c(OCC(F)(F)F)c(-c5c(C)ccc6[nH]ncc56)c(C5CC5)cc34)CC2)C1 [Compound 75]	300 to 1000 nM	50 to 90%
C=CC(=O)N1CC2(CCN(c3nc(N4CC(N(C)CCO)C4)nc4c(OCC(F)(F)F)c(-c5c(C)ccc6[nH]ncc56)c(C5CC5)cc34)CC2)C1 [Compound 21]	< 300 nM	> 90%
C=CC(=O)N1CC2(CCN(c3nc(N4CC5(CN(C)CCO5)C4)nc4c(OCC(F)(F)F)c(-c5c(C)ccc6[nH]ncc56)c(C5CC5)cc34)CC2)C1 [Compound 81]	< 300 nM	> 90%
C=CC(=O)N1CC2(CCN(c3nc(N4CC(CN(C)CCOC)C4)nc4c(OCC(F)(F)F)c(-c5c(C)ccc6[nH]ncc56)c(C5CC5)cc34)CC2)C1 [Compound 5]	< 300 nM	> 90%
C=CC(=O)N1CC2(CCN(c3nc(N4CC5(CCCN5CCOC)C4)nc4c(OCC(F)(F)F)c(-c5c(C)ccc6[nH]ncc56)c(C5CC5)cc34)CC2)C1 [Compound 74]	< 300 nM	> 90%
C=CC(=O)N1CC2(CCN(c3nc(N4CC(n5cncn5)C4)nc4c(OCC(F)(F)F)c(-c5c(C)ccc6[nH]ncc56)c(C5CC5)cc34)CC2)C1 [Compound 42]	> 1000 nM	50 to 90%
C=CC(=O)N1CC2(CCN(c3nc(N4CC(n5cccc5)C4)nc4c(OCC(F)(F)F)c(-c5c(C)ccc6[nH]ncc56)c(C5CC5)cc34)CC2)C1 [Compound 39]	300 to 1000 nM	50 to 90%
C=CC(=O)N1CC2(CCN(c3nc(N4CC5(CCCN5CCF)C4)nc4c(OCC(F)(F)F)c(-c5c(C)ccc6[nH]ncc56)c(C5CC5)cc34)CC2)C1 [Compound 118]	< 300 nM	> 90%
C=CC(=O)N1CC2(CCN(c3nc(N4CC(C)(N(C)C)C4)nc4c(OCC(F)(F)F)c(-c5c(C)ccc6[nH]ncc56)c(C5CC5)cc34)CC2)C1 [Compound 59]	< 300 nM	> 90%
C=CC(=O)N1CC2(CCN(c3nc(O[C@H]4C[C@@H](N5CCC(F)(F)C5)C4)nc4c(OCC(F)(F)F)c(-c5c(C)ccc6[nH]ncc56)c(C5CC5)cc34)CC2)C1 [Compound 91]	< 300 nM	> 90%
C=CC(=O)N1CC2(CCN(c3nc(N4CC5(CC(OC)CN5C)C4)nc4c(OCC(F)(F)F)c(-c5c(C)ccc6[nH]ncc56)c(C5CC5)cc34)CC2)C1 (stereo not shown) [Compound 123]	< 300 nM	> 90%
C=CC(=O)N1CC2(CCN(c3nc(N4CC(C(=O)N5CC6(CN(C)C6)C5)C4)nc4c(OCC(F)(F)F)c(-c5c(C)ccc6[nH]ncc56)c(C5CC5)cc34)CC2)C1 [Compound 48]	300 to 1000 nM	50 to 90%
C=CC(=O)N1CC2(CCN(c3nc(N4CC(C)(CN5CCC5)C4)nc4c(OCC(F)(F)F)c(-c5c(C)ccc6[nH]ncc56)c(C5CC5)cc34)CC2)C1 [Compound 63]	< 300 nM	> 90%
C=CC(=O)N1CC2(CCN(c3nc(N4CC(C(=O)N5CC(N(C)C)C5)C4)nc4c(OCC(F)(F)F)c(-c5c(C)ccc6[nH]ncc56)c(C5CC5)cc34)CC2)C1 [Compound 47]	< 300 nM	> 90%
C=CC(=O)N1CC2(CCN(c3nc(N4CC(N5CC6(CCOCC6)C5)C4)nc4c(OCC(F)(F)F)c(-c5c(C)ccc6[nH]ncc56)c(C5CC5)cc34)CC2)C1 [Compound 33]	300 to 1000 nM	50 to 90%

Second part, led by results:

IC50 [2]	SMILES	inhibition at 1 µM [1]
< 300 nM	C=CC(=O)N1CC2(CCN(c3nc(N4CC(OCC5CC5)C4)nc4c(OCC(F)(F)F)c(-c5c(C)ccc6[nH]ncc56)c(C5CC5)cc34)CC2)C1 [Compound 17]	> 90%
< 300 nM	C=CC(=O)N1CC2(CCN(c3nc(N4CC(N5CC6(CC6)C5)C4)nc4c(OCC(F)(F)F)c(-c5c(C)c(C)cc6[nH]ncc56)c(C5CC5)cc34)CC2)C1 [Compound 105]	> 90%
< 300 nM	C=CC(=O)N1CC2(CCN(c3nc(N4CC(S(=O)(=O)N5CCN(C)CC5)C4)nc4c(OCC(F)(F)F)c(-c5c(C)ccc6[nH]ncc56)c(C5CC5)cc34)CC2)C1 [Compound 49]	> 90%
< 300 nM	C=CC(=O)N1CC2(C1)CN(c1nc(N3CC(N4CC5(CC5)C4)C3)nc3c(OCC(F)(F)F)c(-c4c(C)ccc5[nH]ncc45)c(C4CC4)cc13)C2 [Compound 101]	> 90%
< 300 nM	C=CC(=O)N1CC2(CCN(c3nc(N4CC5(CCN5CC(F)(F)F)C4)nc4c(OCC(F)(F)F)c(-c5c(C)ccc6[nH]ncc56)c(C5CC5)cc34)CC2)C1 [Compound 68]	> 90%
< 300 nM	C=CC(=O)N1CC2(CCN(c3nc(N4CC5(CC(O)CN5C)C4)nc4c(OCC(F)(F)F)c(-c5c(C)ccc6[nH]ncc56)c(C5CC5)cc34)CC2)C1 (stereo not shown) [Compound 121]	> 90%
< 300 nM	C=CC(=O)N1CC2(CCN(c3nc(N4CC(N5CC6(CC6)C5)C4)nc4c(OCC(F)(F)F)c(-c5c(F)ccc6cn[nH]c56)c(C5CC5)cc34)CC2)C1 [Compound 110]	> 90%
< 300 nM	C=CC(=O)N1CC2(CCN(c3nc(N4CC(N5CC6(CC6)C5)C4)nc4c(OCC(F)(F)F)c(-c5c(C)ccc6[nH]ncc56)c(C=C)cc34)CC2)C1 [Compound 100]	> 90%
< 300 nM	C=CC(=O)N1CC2(CCN(c3nc(N4CC(N5CC6(CN(C)C6)C5)C4)nc4c(OCC(F)(F)F)c(-c5c(C)ccc6[nH]ncc56)c(C5CC5)cc34)CC2)C1 [Compound 32]	> 90%
< 300 nM	C=CC(=O)N1CC2(CCN(c3nc(N4CC5(CCN5C5CCC5)C4)nc4c(OCC(F)(F)F)c(-c5c(C)ccc6[nH]ncc56)c(C5CC5)cc34)CC2)C1 [Compound 70]	> 90%
< 300 nM	C=CC(=O)N1CC2(CCN(c3nc(N4CC(N5CCC56CC6)C4)nc4c(OCC(F)(F)F)c(-c5c(C)ccc6[nH]ncc56)c(C5CC5)cc34)CC2)C1 [Compound 34]	> 90%
< 300 nM	C=CCN1CCCC12CN(c1nc(N3CCC4(CC3)CN(C(=O)C=C)C4)c3cc(C4CC4)c(-c4c(C)ccc5[nH]ncc45)c(OCC(F)(F)F)c3n1)C2 [Compound 119]	> 90%
< 300 nM	C=CC(=O)N1CC2(CCN(c3nc(N4CC(N5CC6(COC6)C5)C4)nc4c(OCC(F)(F)F)c(-c5c(C)ccc6[nH]ncc56)c(C5CC5)cc34)CC2)C1 [Compound 30]	> 90%
< 300 nM	C=CC(=O)N1CC2(CCN(c3nc(N4CC(C(=O)N5CCN(C)CC5)C4)nc4c(OCC(F)(F)F)c(-c5c(C)ccc6[nH]ncc56)c(C5CC5)cc34)CC2)C1 [Compound 46]	> 90%
< 300 nM	C=CC(=O)N1CC2(CCN(c3nc(N4CC(CC#N)(N5CCCC5)C4)nc4c(OCC(F)(F)F)c(-c5c(C)ccc6[nH]ncc56)c(C5CC5)cc34)CC2)C1 [Compound 55]	> 90%
< 300 nM	C=CC(=O)N1CC2(CCN(c3nc(N4CC5(CCN5CC5CC5)C4)nc4c(OCC(F)(F)F)c(-c5c(C)ccc6[nH]ncc56)c(C5CC5)cc34)CC2)C1 [Compound 69]	> 90%
< 300 nM	C=CC(=O)N1CC2(CCN(c3nc(N4CC(CC#N)(N(C)CCOC)C4)nc4c(OCC(F)(F)F)c(-c5c(C)ccc6[nH]ncc56)c(C5CC5)cc34)CC2)C1 [Compound 53]	> 90%
< 300 nM	C=CC(=O)N1CC2(CCN(c3nc(N4CC5(C4)CC(F)(F)CN5CC)nc4c(OCC(F)(F)F)c(-c5c(C)ccc6[nH]ncc56)c(C5CC5)cc34)CC2)C1 [Compound 130]	> 90%
< 300 nM	C=CC(=O)N1CC2(CCN(c3nc(N4CC(COC5CC5)C4)nc4c(OCC(F)(F)F)c(-c5c(C)ccc6[nH]ncc56)c(C5CC5)cc34)CC2)C1 [Compound 10]	> 90%
< 300 nM	C=CC(=O)N1CC2(CCN(c3nc(N4CC5(CCCN5C)C4)nc4c(OCC(F)(F)F)c(-c5c(C)ccc6[nH]ncc56)c(C=C)cc34)CC2)C1 [Compound 131]	> 90%
